≈ marks a conversion by molar mass, not a printed value.
Experiments:
Format in all cases: functional
Staphylococcus aureus = experiment: Antibacterial activity against Staphylococcus aureus MTCC 96 assessed as growth inhibition after 24 hr by NCCLS broth microdilution method; conditions: MTCC 96, 24 h
Candida albicans = experiment: Antifungal activity against Candida albicans MTCC 227 assessed as growth inhibition after 48 hr by NCCLS broth microdilution method; conditions: MTCC 227, 48 h
Escherichia coli = experiment: Antibacterial activity against Escherichia coli MTCC 443 assessed as growth inhibition after 24 hr by NCCLS broth microdilution method; conditions: MTCC 443, 24 h
Streptococcus pyogenes = experiment: Antibacterial activity against Streptococcus pyogenes MTCC 442 assessed as growth inhibition after 24 hr by NCCLS broth microdilution method; conditions: MTCC 442, 24 h
Pseudomonas aeruginosa = experiment: Antibacterial activity against Pseudomonas aeruginosa MTCC 1688 assessed as growth inhibition after 24 hr by NCCLS broth microdilution method; conditions: MTCC 1688, 24 h
Aspergillus clavatus = experiment: Antifungal activity against Aspergillus clavatus MTCC 1323 assessed as growth inhibition after 48 hr by NCCLS broth microdilution method; conditions: MTCC 1323, 48 h
Aspergillus niger = experiment: Antifungal activity against Aspergillus niger MTCC 282 assessed as growth inhibition after 48 hr by NCCLS broth microdilution method; conditions: MTCC 282, 48 h

MIC (Staphylococcus aureus) [µg/mL]	MIC (Candida albicans) [µg/mL]	MIC (Escherichia coli) [µg/mL]	MIC (Streptococcus pyogenes) [µg/mL]	MIC (Pseudomonas aeruginosa) [µg/mL]	MIC (Aspergillus clavatus) [µg/mL]	MIC (Aspergillus niger) [µg/mL]	Structure (SMILES)
100 (≈ 228 µM)	250 (≈ 570 µM)	50 (≈ 114 µM)	25 (≈ 57 µM)	50 (≈ 114 µM)	100 (≈ 228 µM)	250 (≈ 570 µM)	Cc1ccc2nc(Cl)c(C3CC(c4ccc(F)cc4)=NN3C3=NC(=O)CS3)cc2c1 (stereo unspecified)
250 (≈ 537 µM)	250 (≈ 537 µM)	25 (≈ 53.7 µM)	25 (≈ 53.7 µM)	12.5 (≈ 26.8 µM)	12.5 (≈ 26.8 µM)	50 (≈ 107 µM)	Cc1ccc2nc(Cl)c(C3CC(c4ccccc4[N+](=O)[O-])=NN3C3=NC(=O)CS3)cc2c1 (stereo unspecified)
500 (≈ 1070 µM)	500 (≈ 1070 µM)	250 (≈ 537 µM)	500 (≈ 1070 µM)	500 (≈ 1070 µM)	50 (≈ 107 µM)	100 (≈ 215 µM)	Cc1ccc2nc(Cl)c(C3CC(c4cccc([N+](=O)[O-])c4)=NN3C3=NC(=O)CS3)cc2c1 (stereo unspecified)
100 (≈ 215 µM)	500 (≈ 1070 µM)	50 (≈ 107 µM)	50 (≈ 107 µM)	250 (≈ 537 µM)	100 (≈ 215 µM)	25 (≈ 53.7 µM)	Cc1ccc2nc(Cl)c(C3CC(c4ccc([N+](=O)[O-])cc4)=NN3C3=NC(=O)CS3)cc2c1 (stereo unspecified)
250 (≈ 594 µM)	1000 (≈ 2380 µM)	500 (≈ 1190 µM)	500 (≈ 1190 µM)	250 (≈ 594 µM)	500 (≈ 1190 µM)	500 (≈ 1190 µM)	Cc1ccc2nc(Cl)c(C3CC(c4ccccc4)=NN3C3=NC(=O)CS3)cc2c1 (stereo unspecified)
500 (≈ 1140 µM)	1000 (≈ 2290 µM)	500 (≈ 1140 µM)	250 (≈ 572 µM)	500 (≈ 1140 µM)	1000 (≈ 2290 µM)	500 (≈ 1140 µM)	Cc1ccc2nc(Cl)c(C3CC(c4ccccc4O)=NN3C3=NC(=O)CS3)cc2c1 (stereo unspecified)
500 (≈ 1140 µM)	1000 (≈ 2290 µM)	500 (≈ 1140 µM)	250 (≈ 572 µM)	250 (≈ 572 µM)	1000 (≈ 2290 µM)	1000 (≈ 2290 µM)	Cc1ccc2nc(Cl)c(C3CC(c4ccc(O)cc4)=NN3C3=NC(=O)CS3)cc2c1 (stereo unspecified)
500 (≈ 1110 µM)	1000 (≈ 2220 µM)	500 (≈ 1110 µM)	500 (≈ 1110 µM)	500 (≈ 1110 µM)	500 (≈ 1110 µM)	500 (≈ 1110 µM)	COc1ccc(C2=NN(C3=NC(=O)CS3)C(c3cc4cc(C)ccc4nc3Cl)C2)cc1 (stereo unspecified)
250 (≈ 549 µM)	100 (≈ 220 µM)	50 (≈ 110 µM)	50 (≈ 110 µM)	50 (≈ 110 µM)	100 (≈ 220 µM)	50 (≈ 110 µM)	Cc1ccc2nc(Cl)c(C3CC(c4ccccc4Cl)=NN3C3=NC(=O)CS3)cc2c1 (stereo unspecified)
50 (≈ 110 µM)	500 (≈ 1100 µM)	250 (≈ 549 µM)	50 (≈ 110 µM)	100 (≈ 220 µM)	50 (≈ 110 µM)	100 (≈ 220 µM)	Cc1ccc2nc(Cl)c(C3CC(c4ccc(Cl)cc4)=NN3C3=NC(=O)CS3)cc2c1 (stereo unspecified)
100 (≈ 228 µM)	100 (≈ 228 µM)	25 (≈ 57 µM)	500 (≈ 1140 µM)	250 (≈ 570 µM)	500 (≈ 1140 µM)	50 (≈ 114 µM)	Cc1ccc2nc(Cl)c(C3CC(c4ccccc4F)=NN3C3=NC(=O)CS3)cc2c1 (stereo unspecified)
500 (≈ 1140 µM)	1000 (≈ 2280 µM)	500 (≈ 1140 µM)	100 (≈ 228 µM)	100 (≈ 228 µM)	500 (≈ 1140 µM)	500 (≈ 1140 µM)	Cc1ccc2nc(Cl)c(C3CC(c4cccc(F)c4)=NN3C3=NC(=O)CS3)cc2c1 (stereo unspecified)
–	500 (≈ 1420 µM)	–	–	–	100 (≈ 283 µM)	100 (≈ 283 µM)	COC1=CC(=O)C[C@@H](C)[C@]12Oc1c(Cl)c(OC)cc(OC)c1C2=O [GRISEOFULVIN]

Structure (SMILES)	MIC (Staphylococcus aureus) [µg/mL]	MIC (Candida albicans) [µg/mL]	MIC (Escherichia coli) [µg/mL]	MIC (Streptococcus pyogenes) [µg/mL]	MIC (Pseudomonas aeruginosa) [µg/mL]	MIC (Aspergillus clavatus) [µg/mL]	MIC (Aspergillus niger) [µg/mL]
CC1(C)S[C@@H]2[C@H](NC(=O)[C@H](N)c3ccccc3)C(=O)N2[C@H]1C(=O)O [AMPICILLIN]	250 (≈ 715 µM)	–	100 (≈ 286 µM)	100 (≈ 286 µM)	100 (≈ 286 µM)	–	–
